Data as given in patent publication US20260240794A1 (priority 2023, published 2026).
Where two headings read alike, the source gives them in different places.

Legend:
β2-adrenergic receptor = molecular target: T1, β2-adrenergic receptor (Mus musculus, UniProt P18762); test: β-adrenergic receptor density by radioligand binding (ICYP) in lung membranes of treated asthmatic mice; settings: for Kd: KD of radioligand ICYP in lung membranes, not of the drug, read-out: Apparent KD (in parentheses) (converted); for Bmax (receptor density): lung membranes
T1 construct: rows headed: Apparent KD (in parentheses); other: 15 Minutes of drug treatment; KD of radioligand ICYP in lung membranes, not of the; Bmax (receptor density); lung membranes; Apparent KD (in parentheses); other: 28 Days of drug treatment; KD of radioligand ICYP in lung membranes, not of the dr

mucous metaplasia = test: Mucous metaplasia in sensitized/challenged mice (photomicrographs); assay type: in vivo; settings: sensitized/challenged mice after treatment
Text: FIG. 9 is a photomicrograph showing the occurrence of a mucus plug in the bronchus of a child with fatal asthma.

β-arrestin pathway = test: Block of the β-arrestin pathway; settings: FIG. 13
[1] = cited from earlier work
[2] = system: asthmatic mice (ovalbumin-sensitized and ovalbumin-challenged); assay type: in vivo, Balb/cJ mice; settings: chronic treatment 7 days, 20 mg/kg (metoprolol 3x daily s.c., timolol in chow), versus historical controls
[3] = Pharmacokinetics of inhaled and oral airway drugs (literature); assay type: in vivo, humans; settings: 6 children with asthma versus 11 healthy adults
Phospholipase C (PLC-β1) = test: Ratio of phospholipase C to actin by immunoblotting in cultured tracheal smooth muscle cells; assay type: cell-based; settings: cells from asthmatic mice, chronic nadolol high dose treatment
Text: Cultured tracheal smooth muscle cells were obtained from mice exposed to the following treatments: NS/NC=nonasthmatic, non-challenged mice; S/C=asthmatic mice; Sal.Ac=asthmatic mice, acute salbutamol treatment; Sal.Ch=asthmatic mice, chronic salbutamol treatment; Nad.Ac=asthmatic mice, acute nadolol high dose treatment; and Nad.Ch=asthmatic mice, chronic nadolol high dose treatment.
After airway function experiments, the tracheas were surgically removed from anesthetized mice that had been treated with drugs or vehicle. The tracheas were minced and the cells plated and grown in culture. The smooth muscle cells grow faster and take over the culture dish. The cells were grown in medium which contained the drugs used in the treatment or vehicle controls. Phospholipase C (PLC-(β1) was determined by immunoblotting with an antibody specific for the enzyme. Actin was used as a loading control and the amount of PLC-β1 was expressed as a ratio of phospholipase C to actin.

mucin 5AC = test: Level of mucin 5AC in smokers, nadolol versus placebo; assay type: in vivo, human; settings: P<0.05
cAMP accumulation = test: cAMP accumulation
[4] = cited from earlier work; remark: listed apart in the source

T1 sequence (P18762 whole entry): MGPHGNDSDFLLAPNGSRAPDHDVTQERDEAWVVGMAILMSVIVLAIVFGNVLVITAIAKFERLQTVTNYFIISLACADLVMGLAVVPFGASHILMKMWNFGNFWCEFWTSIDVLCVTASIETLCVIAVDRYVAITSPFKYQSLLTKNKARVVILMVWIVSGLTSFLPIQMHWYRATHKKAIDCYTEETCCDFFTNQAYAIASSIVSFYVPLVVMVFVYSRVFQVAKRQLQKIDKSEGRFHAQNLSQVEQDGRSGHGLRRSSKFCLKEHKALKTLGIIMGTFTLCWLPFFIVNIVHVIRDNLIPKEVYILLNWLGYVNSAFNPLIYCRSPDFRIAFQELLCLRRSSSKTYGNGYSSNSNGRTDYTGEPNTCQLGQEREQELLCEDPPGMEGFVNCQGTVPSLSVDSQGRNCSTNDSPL

SMILES	Kd (β2-adrenergic receptor; 15 Minutes of drug treatment)	Kd (β2-adrenergic receptor; 28 Days of drug treatment)	Bmax (receptor density) (β2-adrenergic receptor; 28 Days of drug treatment)	block of the β-arrestin pathway (β-arrestin pathway)	further results
C=CCc1ccccc1OCC(O)CNC(C)C (stereo not drawn) [alprenolol]	0.454 nM	0.291 nM	179.2 ± 53.05 femtomoles of sites per milligram of protein	did not block the β-arrestin pathway	mucous metaplasia (mucous metaplasia): no improvement in mucous metaplasia
CC(C)(C)NCC(O)c1cc(O)cc(O)c1 (stereo not drawn) [terbutaline]	–	–	–	–	bioavailability with the oral component (swallowed fraction of the dose) added ([1]; from an MDI): 16.5%; mean pulmonary bioavailability ([1]; from an MDI): 9.1%
CC(C)(C)NC[C@H](O)COc1nsnc1N1CCOCC1 [timolol]	–	–	–	–	airway hyperresponsiveness (Raw) [2]: effective in reducing airway hyperresponsiveness
CC(C)(C)NCC(O)c1ccc(O)c(CO)c1 (stereo not drawn) [salbutamol]	–	–	97.0 ± 23.02 femtomoles of sites per milligram of protein	–	–
CC(C)NCC(O)COc1cccc2ccccc12 (stereo not drawn) [propranolol]	–	–	–	did not block the β-arrestin pathway	–
COCCc1ccc(OCC(O)CNC(C)C)cc1 (stereo not drawn) [metoprolol]	–	–	–	–	airway hyperresponsiveness (Raw) [2]: effective in reducing airway hyperresponsiveness
CCCC1O[C@@H]2C[C@H]3[C@@H]4CCC5=CC(=O)C=C[C@]5(C)[C@H]4[C@@H](O)C[C@]3(C)[C@]2(C(=O)CO)O1 (stereo partly drawn) [budesonide]	–	–	–	–	plasma clearance of the two enantiomers per kilogram of bodyweight, excess in children over adults [3]: about 50%; elimination half-life ([1]; in vivo): 2.8 ± 1.1 h; plasma clearance ([1]; in vivo): 84 ± 27 L/h
CC(C)(C)NCC(O)COc1cccc2c1CC(O)C(O)C2 (stereo not drawn) [nadolol]	0.695 nM	1.59 nM	785.5 ± 154.8 femtomoles of sites per milligram of protein	blocks this pathway	ratio of phospholipase C (PLC-β1) to actin (Phospholipase C (PLC-β1)): significantly decreases the activity of phospholipase C; mucous metaplasia (mucous metaplasia): nearly complete elimination of mucous metaplasia; level of mucin 5AC (mucin 5AC): reduces the accumulation of the mucus-associated protein mucin 5AC; cAMP accumulation (cAMP accumulation): not associated with cAMP accumulation; lipid solubility [4]: low lipid solubility
COc1ccccc1OCCNCC(O)COc1cccc2[nH]c3ccccc3c12 (stereo not drawn) [carvedilol]	0.565 nM	1.44 nM	904.1 ± 43.46 femtomoles of sites per milligram of protein	did not block the β-arrestin pathway	–
